According to PMC11119685, “Undescribed Cyclohexene and Benzofuran Alkenyl Derivatives from Choerospondias axillaris, a Potential Hypoglycemic Fruit” (Foods, 2024):
Like-named read-outs stand apart in the source and are kept apart here.

Molecular target: α-glucosidase (Saccharomyces cerevisiae, UniProt P53341)
Experiment: α-Glucosidase inhibitory assay (pNPG substrate, absorbance at 405 nm)
Assay type: biochemical
Conditions: for inhibition at 50 µM: read-out: Inhibition Rate (in vitro α-glucosidase inhibitory activity); for α-glucosidase inhibitory activity, in words: qualitative statement, tested at 50 μM
Protocol: The α-glucosidase inhibitory activity was evaluated according to a previous method. In brief, α-glucosidase solution (0.025 U/mL, dissolved in 0.1 M phosphate-buffered saline (PBS) solution with a pH of 6.8), was mixed with 50 μM inhibitor and incubated at 37 °C for 10 min. pNPG solution (1 μM, dissolved in 0.1 M PBS solution) was added to the mixed solution and incubated at 37 °C for 40 min. Sodium carbonate (1 M) solution was added to terminate the reaction. […] The absorbance was recorded at 405 nm usin a microplate reader. The α-glucosidase inhibitory rate was calculated as follows:
Inhibitory rate% = [(A0 − A1)/A0)] × 100%, where:
A0 and A1 represent the absorbance of the blank group (containing enzyme, pNPG, PBS buffer, and DMSO), the sample group (containing enzyme, pNPG, PBS buffer, and samples), respectively. IC50 values were computed based on the Reed–Muench method.
All data were analyzed and presented as mean values ± SD from three independent assays (n = 3). The IC50 values were determined by Graph Pad Prism version 5 (University of California, San Diego, CA, USA).

[1] = at a concentration of 50 μM, means ± SD (n = 3)

α-glucosidase, sequence (P53341 whole entry): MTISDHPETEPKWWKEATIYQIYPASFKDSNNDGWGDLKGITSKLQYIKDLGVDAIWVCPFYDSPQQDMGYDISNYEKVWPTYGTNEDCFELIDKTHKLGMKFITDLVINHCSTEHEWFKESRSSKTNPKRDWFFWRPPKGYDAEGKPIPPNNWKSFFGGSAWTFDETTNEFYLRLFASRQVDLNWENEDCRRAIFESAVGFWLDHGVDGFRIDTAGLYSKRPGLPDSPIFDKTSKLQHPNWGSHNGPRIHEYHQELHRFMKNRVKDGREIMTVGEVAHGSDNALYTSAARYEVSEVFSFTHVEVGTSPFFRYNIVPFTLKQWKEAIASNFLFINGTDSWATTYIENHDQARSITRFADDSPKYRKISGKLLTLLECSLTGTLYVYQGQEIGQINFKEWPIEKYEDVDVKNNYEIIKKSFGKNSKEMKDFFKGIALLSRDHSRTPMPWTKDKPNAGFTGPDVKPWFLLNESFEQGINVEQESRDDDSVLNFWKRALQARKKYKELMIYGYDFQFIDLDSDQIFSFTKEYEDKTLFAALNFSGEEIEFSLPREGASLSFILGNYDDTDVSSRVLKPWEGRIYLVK

| SMILES | inhibition at 50 µM [1] [%] | α-glucosidase inhibitory activity, in words | inhibition at 50 µM [%] |
| --- | --- | --- | --- |
| CCCCC=CCCCCCCCCCC1(O)CC(O)CCC1O [Compound 1, (1S,2R,4S)-2-[10′(Z)-pentadecenyl]-cyclohexane-1,2,4-triol] | -8.1 ± 2.4 | – | – |
| CCCCC=CCCCCCCCCCCCC1(O)CC(O)C=CC1O [Compound 2, (1S,2R,4S)-2-[12′(Z)-heptadecenyl]-cyclohex-5-en-1,2,4-triol] | -12.4 ± 0.66 | – | – |
| CCCCC=CCCCCCCCCCCCCCC1(O)CC(O)C=CC1O [Compound 3, (1S,2R,4S)-2-[14′(Z)-nonadecenyl]-cyclohex-5-en-1,2,4-triol] | -13.6 ± 1.7 | – | – |
| CCCCC=CCCCCCCCCCC(O)CC1=CC(=O)CCC1O [Compound 4, (4R,2′R)-dihydroxy-3-[12′(Z)-heptadecenyl]-2-cyclohexenone] | 11.1 ± 1.1 | – | – |
| CCCCC=CCCCCCCCCCC(O)CC1=CC(=O)CC(O)C1O [Compound 5, (4S,5S,2′R)-trihydroxy-3-[12′(Z)-heptadecenyl]-2-cyclohexenone] | -11.2 ± 0.94 | – | – |
| CCCC/C=C\CCCCCCCCCc1cc2cc(O)ccc2o1 [Compound 6, 2-[10′(Z)-pentadecenyl]-benzofuran-5-ol] | 97.7 ± 0.19 | – | – |
| Oc1cc(O)c2c(c1)O[C@H](c1ccc(O)c(O)c1)[C@@H](O)C2 [Compound 9, catechin] | 61.1 ± 1.6 | notable α-glucosidase inhibition | – |
| O=C1c2c(O)cc(O)cc2O[C@H](c2ccc(O)c(O)c2)[C@H]1O [Compound 10, dihydroquercetin] | – | comparable α-glucosidase inhibitory | 36.4 ± 0.72 |
| O=C1C[C@@H](c2ccc(O)cc2)Oc2cc(O)cc(O)c21 [Compound 13, naringenin] | – | – | 65.1 ± 2 |
| C[C@@H]1O[C@@H](Oc2c(-c3ccc(O)c(O)c3)oc3cc(O)cc(O)c3c2=O)[C@H](O)[C@H](O)[C@H]1O [Compound 14, quercetin-3-O-α-L-rhamnoside] | – | comparable α-glucosidase inhibitory | 26.2 ± 1.3 |

Now from value to compound, other results behind:

| inhibition at 50 µM [1] [%] | α-glucosidase inhibitory activity, in words | SMILES | inhibition at 50 µM [%] |
| --- | --- | --- | --- |
| 96.7 ± 0.51 | – | CCCC/C=C\CCCCCCCc1cc2cc(O)ccc2o1 [Compound 7, 2-[8′(Z)-tridecenyl]-benzofuran-5-ol] | – |
| 98.7 ± 0.2 | – | CCCC/C=C\CCCCCCCCCCCc1cc2cc(O)ccc2o1 [Compound 8, choerosponol A] | – |
| 43.8 ± 1.3 | comparable α-glucosidase inhibitory | O=C1c2c(O)cc(O)cc2O[C@H](c2ccc(O)cc2)[C@H]1O [Compound 11, dihydrokaempferol] | – |
| 66.6 ± 0.92 | – | O=C1C[C@@H](c2ccc(O)c(O)c2)Oc2cc(O)cc(O)c21 [Compound 12, eriodictyol] | – |
| 16.6 ± 0.57 | weak inhibitory activity | COc1cc([C@H]2c3cc(O)c(OC)cc3C[C@@H](CO)[C@@H]2CO)ccc1O [Compound 15, (+)-isolariciresinol] | – |
| 7.5 ± 1.4 | weak inhibitory activity | COc1cc([C@@H]2c3c(cc(OC)c(O)c3OC)C[C@H](CO)[C@H]2CO)cc(OC)c1O [Compound 16, (−)-lyoniresinol] | – |
| 37.6 ± 0.12 | weak inhibitory activity | COc1cc(C[C@@H](CO)[C@H](CO)Cc2ccc(O)c(OC)c2)ccc1O [Compound 17, (−)-secoisolariciresinol] | – |
| 4.8 ± 0.38 | weak inhibitory activity | COc1cc(C2OCC3C(c4cc(OC)c(O)c(OC)c4)OCC23)cc(OC)c1O (centres unmarked) [Compound 18, lirioresinol] | – |
